# Where a name gives a salt, the structure may show the parent alone.
# Key:
# [1] = Dissolution test, flow-through cell method of the Japanese Pharmacopoeia; format: physicochemical; details: Tamsulosin hydrochloride
# Procedure: According to the flow-through cell method disclosed in the Japanese Pharmacopoeia, the test was carried out using a dissolution medium which was one of 1st fluid for dissolution test (pH 1.2), 2nd fluid for dissolution test (pH 6.8), and a disodium hydrogen phosphate-citric acid buffer solution at pH 7.2 (obtained by dissolving 7.1 g of dehydrated disodium hydrogen phosphate in water and adjusting the total volume to be 1000 mL, and adjusting the pH to 7.2 by adding, to the obtained solution, a solution obtained by dissolving 5.3 g of citric acid monohydrate in water and adjusting the total volume to be 1000 mL).
# Swinnex Filter Holder 25 mm (from Nippon Millipore) was used for a cell. In order to prevent flowing out of the particulate formulations, a support screen (25 mm stainless, from Nippon Millipore), Durapore Membrane Filters (PVDF, Hydrophilic, 0.45 μm, 25 mm, from Nippon Millipore), and a silicon gasket 25 mm (Swinnex Filter Holder from Nippon Millipore) were successively installed. Masterflex L/S (Model 7524-50 from Cole Parmer Instrument COMPANY) was used as a pump and a dissolution medium was transported at 2.5 mL/min. Besides that, the test was carried out according to the flow-through cell method disclosed in the Japanese Pharmacopeia. An eluate was sampled 10, 30, 60 minutes after starting the test and the dissolution amount of the drug in the eluate was measured by high performance liquid chromatography (HPLC) and the dissolution rate to the initial drug content was calculated.
# [2] = Measurement of average particle diameter of particulate formulation (automatic particle image analyzer); format: physicochemical; details: particle diameter of 50% by volume; 20000 or more particles
# Procedure: Herein, the “average particle diameter” means the particle diameter of 50% by volume of the entire particles and may be measured by using an “automatic particle image analyzer” (a particle image analyzer is an apparatus for measuring the particle diameter from images of photographed particles) and a “laser diffraction particle size distribution analyzer” (or a “laser diffraction/scattering particle size distribution analyzer”).
# The average particle diameter was measured using 20000 or more particles with an automatic particle image analyzer (Morphologi (registered trade name)-G3 from Malvern Instruments).
compound,measurement,setting,value
"CCOc1ccccc1OCCN[C@H](C)Cc1ccc(OC)c(S(N)(=O)=O)c1 [Comparative Example 9, Tamsulosin hydrochloride]",Elution rate ratio between pH 6.8 and pH 1.2,[1]; 60 min,2.4
same,"Drug dissolution under a condition of pH 1.2, in words",[1]; pH 1.2,high drug dissolution rate
same,Pharmaceutical elution rate 60 minutes after starting the test(%),"[1]; pH 1.2, 60 min",36.7%
same,"Drug dissolution under a condition of pH 6.8, in words",[1]; pH 6.8,high drug dissolution rate
same,Pharmaceutical elution rate 60 minutes after starting the test(%),"[1]; pH 6.8, 60 min",88.4%
same,Average particle diameter of particulate formulations,[2],2.7 μm

# From patent US20120308662A1, “PARTICULATE PREPARATION AND METHOD FOR PRODUCING THE SAME” (NITTO DENKO CORPORATION, priority 2011, published 2012)
